According to patent US7964593B2, “Indolone-acetamide derivatives, processes for preparing them and their uses” (UCB Pharma, S.A., priority 2003, dated 2011):

Legend:
[1] = compared with levetiracetam, literature statement; cited from earlier work

melting point	SMILES	activity in the treatment of epilepsy [1]
171 to 172 °C	C[C@@H](C(N)=O)N1C(=O)Cc2cc(Cl)ccc21 (single isomer, unassigned) [Compound 34]	
171 to 172 °C	C[C@H](C(N)=O)N1C(=O)Cc2cc(Cl)ccc21 (single isomer, unassigned) [Compound 33]	
	CC[C@H](C(N)=O)N1CCCC1=O [(R)-α-ethyl-2-oxo-1-pyrrolidine acetamide]	completely lacks activity
